Tests used:
[1] = target: T1, human B1R receptor (hB1R) (Homo sapiens, UniProt P46663); assay: FLIPR Ca2+ assay on hB1R-transfected CHO K1 cells, antagonistic action; type: cell-based; details: CHO-K1, 10 μM test substance; agonist Lys-Des-Arg9-bradykinin 0.5 nM; % of maximum achievable inhibition; read-out: hB1R [10 μM] % inhibition
T1 construct: host or cells: CHO K1 cells
T1 sequence (P46663 1-353): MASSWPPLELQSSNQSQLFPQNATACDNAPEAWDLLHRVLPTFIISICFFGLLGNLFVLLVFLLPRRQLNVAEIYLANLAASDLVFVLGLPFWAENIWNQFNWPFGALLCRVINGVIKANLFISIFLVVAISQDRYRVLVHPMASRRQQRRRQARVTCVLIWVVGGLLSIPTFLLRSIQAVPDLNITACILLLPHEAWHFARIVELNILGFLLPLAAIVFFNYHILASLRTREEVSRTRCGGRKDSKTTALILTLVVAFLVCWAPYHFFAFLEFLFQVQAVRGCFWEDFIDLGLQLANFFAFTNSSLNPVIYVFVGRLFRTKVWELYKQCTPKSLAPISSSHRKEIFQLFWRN

[2] = target: T2, B1R receptor of the rat (rB1R) (Rattus norvegicus, UniProt P97583); assay: FLIPR Ca2+ assay on rB1R-transfected CHO K1 cells, antagonistic action; type: cell-based; details: CHO-K1, 10 μM test substance; agonist Des-Arg9-bradykinin 100 nM; % of maximum achievable inhibition; read-out: rB1R [10 μM] % inhibition
T2 construct: host or cells: CHO K1 cells
T2 sequence (P97583 1-337): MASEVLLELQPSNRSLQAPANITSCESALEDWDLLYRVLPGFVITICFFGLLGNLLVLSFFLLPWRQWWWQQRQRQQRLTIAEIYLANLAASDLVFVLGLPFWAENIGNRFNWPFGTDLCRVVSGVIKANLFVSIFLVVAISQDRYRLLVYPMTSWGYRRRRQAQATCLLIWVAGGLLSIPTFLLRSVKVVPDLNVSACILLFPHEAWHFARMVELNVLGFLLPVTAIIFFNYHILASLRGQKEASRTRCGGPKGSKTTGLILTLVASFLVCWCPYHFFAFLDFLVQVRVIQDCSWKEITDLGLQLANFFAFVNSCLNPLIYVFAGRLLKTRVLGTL

| Structure (SMILES) | inhibition at 10 µM [1] | inhibition at 10 µM [2] |
| --- | --- | --- |
| O=C(COC1CCN(S(=O)(=O)c2c(Cl)cc(Cl)cc2Cl)C1)NC1CCC(c2ccccc2)(N2CCCC2)CC1 (centres unmarked) [Compound 178, N-(4-phenyl-4-(pyrrolidin-1-yl)cyclohexyl)-2-(1-(2,4,6-trichlorophenylsulfonyl)pyrrolidin-3-yloxy)acetamide] | 53% | 76% |
| Cc1cc(S(=O)(=O)N2CCCCC2CCC(=O)N2CCC(c3ccccc3)(N3CCN(c4ccncc4)CC3)CC2)c(C)cc1Cl (centres unmarked) [Compound 99, 3-(1-(4-chloro-2,5-dimethylphenylsulfonyl)piperidin-2-yl)-1-(4-phenyl-4-(4-(pyridin-4-yl)piperazin-1-yl)piperidin-1-yl)propan-1-one] | 100% | 90% |
| Cc1cc(S(=O)(=O)N2CCCCC2CCC(=O)N2CCC(Cc3ccccc3)(N(C)C)CC2)c(C)cc1Cl (centres unmarked) [Compound 80, 1-(4-benzyl-4-(dimethylamino)piperidin-1-yl)-3-(1-(4-chloro-2,5-dimethylphenylsulfonyl)piperidin-2-yl)propan-1-one] | 86% | 99% |
| COc1cc(C)c(S(=O)(=O)N2CCCCC2COCCC(=O)N2CCC(c3cccc(F)c3)(N3CCN(C)CC3)CC2)c(C)c1 (centres unmarked) [Compound 226, 1-(4-(3-Fluorophenyl)-4-(4-methylpiperazin-1-yl)piperidin-1-yl)-3-((1-(4-methoxy-2,6-dimethylphenylsulfonyl)piperidin-2-yl)methoxy)propan-1-one] | 100% | 100% |
